In patent publication US12492169B2, “Aminopyridine compound and application thereof” (priority 2020, dated 2025):
In brackets after ≈: the same amount, converted by molar mass. Several values for one entry are separate records, joined by “and”; a condition that tells them apart may be missing. Equal values may be shown once. Read-outs that look alike come from different tables or passages of the source.

Assays:
[1] = Mouse pharmacokinetic evaluation, intraperitoneal injection after oral ABT; assay type: in vivo; conditions: ip, female CD-1 mice, ABT 50 mg/kg orally 2 hours before, plasma; for AUC: read-out: Concentration Integral AUC; for Cmax: read-out: Peak Concentration Cmax; for Tmax: read-out: Peak Time Tmax
From the text: Experimental Purpose: Using female CD-1 mice as test animals, LC/MS/MS was used to measure the plasma drug concentration at different times after intraperitoneal injection of the test compound. To study the pharmacokinetic behavior of the test compound in mice and evaluate its pharmacokinetic characteristics. Drug preparation: An appropriate amount of sample was weighed and then prepared into a clear or suspended solution. Administration scheme: Two healthy female CD-1 mice were taken, purchased from Beijing Vital River Laboratory Animal Technology Co., Ltd., and given a normal diet. The drug was administered through intraperitoneal injection. Operational steps: 2 hours before administration, 1-aminobenzotriazole (ABT) was orally administered (50 mg/kg, 5 mg/mL in normal saline), and after animal administration, about 30 μL of blood was collected at 0.083, 0.25, 0.5, 1, 2, 4, 8, and 24 hours, and placed in commercially available anticoagulant tubes pre-added with EDTA-K2. The tubes were centrifuged for 10 minutes to separate the plasma, and the plasma was stored at −60° C. The content of the target compound in the plasma sample was determined by LC/MS/MS method, and the experimental results are shown in Table 3.

[2] = tested on: Cryptococcus neoformans H99 ATCC 208821; test: Minimum inhibitory concentration (MIC) test against fungi; assay type: cell-based; conditions: Cryptococcus neoformans, ATCC208821, 72 h, ≥50% growth inhibition by eye, three independent experiments, read-out: MIC
Experimental: (§1) To test the minimum inhibitory concentration (MIC) and minimum effective concentration (MEC) of the drug against fungi.
Cryptococcus neoformans H99 ATCC 208821;
(§2) Test medium: RPMI1640 (containing 0.165 M MOPS, pH7.0)
(§3) On the day of the experiment, the compound in the bottle was dissolved in 100% DMSO to a stock solution concentration of 6.24 mg/mL. Then, the mixture was 10-fold diluted with DMSO to 0.624 mg/mL for use.
(§4) A 2-fold gradient dilution of the compound solution (0.624 mg/mL) was performed using DMSO on a 96-microwell plate (V-bottom) to obtain 100× working solutions (wells 1 to 11). 624, 312, 156, 78, 39, 20, 10, 5, 2.5, 1.25, 0.625 μg/mL. 100% DMSO was used as a positive control (well 12). This was the compound stock plate.
Cryptococcus neoformans H99 ATCC 208821 frozen at −80° C. was streaked on SDA plates and incubated aerobically in a 35±2° C. incubator for 48 hours.
(§5) On the day of the experiment, for strains Candida parapsilosis ATCC 22019, Candida albicans ATCC MYA-2876; Candida albicans WX-CA009; Candida glabrata ATCC15126; Candida tropicalis ATCC 750 and Cryptococcus neoformans H99 ATCC 208821, the plates were taken out and the clones on the plates were picked, suspended in normal saline, and then the turbidity of the fungal suspension was adjusted to OD600=0.2 using a turbidimeter. The fungal suspension contained about 3.0×10^6 CFU/mL. Then the turbidity-adjusted fungal suspension was diluted with a test medium to a concentration of about 3.0×10^3 CFU/mL. This was the inoculum.
(§6) 2 μL of 100× working solution from the compound stock plate (prepared in 3.1) was transferred to a round-bottomed 96-well plate (containing 98 μL of test medium), and then 100 μL of fungus inoculum (prepared in 3.2) was added to each well to obtain a MIC test plate. Therefore, the final test concentrations of the compounds were 6.24, 3.12, 1.56, 0.78, 0.39, 0.20, 0.10, 0.05, 0.025, 0.0125, 0.006 μg/mL. 1% DMSO was used as a growth control.
For Cryptococcus neoformans H99 ATCC 208821, all test plates were incubated aerobically in a 35±2° C. incubator for 72 hours.
(§7) After incubation, according to the criteria in Table 1 below, the test plate was observed by eye or microscope to determine the MIC (g/mL) and MEC (g/mL) of the test compound against yeast and mold.

[3] = tested on: Aspergillus fumigatus ATCC-MYA-4609; test: Minimum effective concentration (MEC) test against fungi; assay type: cell-based; conditions: change of hyphae morphology by microscope, 48 hours, three independent experiments
Experimental: as §1
(§8) Aspergillus fumigatus ATCC-MYA-4609; Aspergillus flavus ATCC MYA-1004
as §2, §3, §4
(§9) Aspergillus fumigatus ATCC-MYA-4609; Aspergillus flavus ATCC MYA-1004 frozen at −80° C. were streaked on SDA plates and incubated aerobically in a 30±2° C. incubator for 6 days.
(§10) For strains Aspergillus fumigatus ATCC MYA-4609; Aspergillus flavus ATCC MYA-1004, after taking out the plate, 3 mL of 0.9% normal saline containing 0.1% Tween20 was added to the plate and the spores were gently collected. The spores were counted with a hemocytometer and the spore suspension was adjusted to about 5×10^6 spores/mL. Then the spore suspension was diluted to 0.8 to 1×10^5 spores/mL with a test medium.
as §6
(§11) For mold strains Aspergillus fumigatus ATCC-MYA-4609 and Aspergillus flavus ATCC MYA-1004, all test plates were incubated aerobically in a 35±° C. incubator for 48 hours.
as §7

[4] = tested on: Aspergillus flavus ATCC MYA-1004; test: as above; assay type: cell-based; conditions: change of hyphae morphology by microscope, 48 hours, three independent experiments
Experimental: as §1, §8, §2, §3, §4, §9, §10, §6, §11, §7

[5] = tested on: Candida tropicalis ATCC 750; test: Minimum inhibitory concentration (MIC) test against fungi; assay type: cell-based; conditions: ≥50% growth inhibition by eye, three independent experiments
Experimental: as §1
(§12) Experimental strains: Candida parapsilosis ATCC 22019; Candida albicans ATCC MYA-2876; Candida albicans WX-CA009; Candida glabrata ATCC15126; Candida tropicalis ATCC 750;
as §2, §3, §4
(§13) Candida parapsilosis ATCC 22019 and Candida albicans ATCC MYA-2876; Candida albicans WX-CA009; Candida glabrata ATCC15126; Candida tropicalis ATCC 750 frozen at −80° C. were streaked on SDA plates and incubated aerobically in a 35±2° C. incubator for 24 hours.
as §5, §6
(§14) For strains Candida parapsilosis ATCC 22019; Candida albicans ATCC MYA-2876; Candida albicans WX-CA009; Candida glabrata ATCC15126; Candida tropicalis ATCC 750, all test plates were incubated aerobically in a 35±2° C. incubator for 24 hours.
as §7

[6] = tested on: Candida albicans WX-CA009; test: as above; assay type: cell-based; conditions: ≥50% growth inhibition by eye, three independent experiments
Experimental: as §1, §12, §2, §3, §4, §13, §5, §6, §14, §7

[7] = tested on: Candida glabrata ATCC15126; test: as above; assay type: cell-based; conditions: ≥50% growth inhibition by eye, three independent experiments
Experimental: as §1, §12, §2, §3, §4, §13, §5, §6, §14, §7

[8] = tested on: Candida parapsilosis ATCC 22019; test: as above; assay type: cell-based; conditions: Lodderomyces parapsilosis, ATCC22019, 24 h, ≥50% growth inhibition by eye, three independent experiments (1st, 2nd, 3rd time), read-out: MIC
Experimental: as §1, §12, §2, §3, §4, §13, §5, §6, §14, §7

[9] = tested on: Candida albicans ATCC MYA-2876; test: as above; assay type: cell-based; conditions: ≥50% growth inhibition by eye, three independent experiments
Experimental: as §1, §12, §2, §3, §4, §13, §5, §6, §14, §7

[10] = tested on: Candida albicans ATCC MYA-2876; test: Mouse candidemia efficacy model; assay type: in vivo; conditions: female CD-1 mice infected with Candida albicans ATCC MYA-2876; 26 mg/kg intraperitoneally once a day for 7 days after 50 mg/kg ABT orally; n=5
Experimental: Experimental animals: female CD-1 mice, 7 weeks old, 27 to 29 g, n=5 or 8;
microbial pathogen: Candida albicans ATCC MYA-2876;
inoculation level and route: 2.0 to 4.0E+05 CFU/mouse, infected by tail vein injection;
treatment: The treatment started at 1 hour after infection. Firstly, ABT was administered orally, and 2 hours later, the test compound was injected intraperitoneally once a day for 7 days in total, with an administration volume of 10 mL/kg.
Observation indicators: Changes in body weight and mortality within 7 days after infection in each group of mice.

[11] = Candida tropicalis, ATCC750, 24 h, read-out: MIC
[12] = Candida albicans, WXCA009, 24 h, read-out: MIC
[13] = Nakaseomyces glabratus, ATCC15126, 24 h, read-out: MIC
[14] = Candida albicans, 24 h, read-out: MIC

| SMILES | AUC ([1]; 26 mpk) | Cmax ([1]; 26 mpk) | Tmax ([1]; 26 mpk) | MIC [2] | MEC [3] | MEC [4] | MIC [5, 11] | MIC [6, 12] | MIC ([6]; 24 hours) | MIC [7, 13] | MIC ([7]; 24 hours) | MIC [8] | AUC ([1]; 6 mpk) | Cmax ([1]; 6 mpk) | Tmax ([1]; 6 mpk) | MIC [9, 14] | protection from death caused by candidemia [10] | MIC ([5]; 24 hours) | MIC ([9]; 24 hours) |
| --- | --- | --- | --- | --- | --- | --- | --- | --- | --- | --- | --- | --- | --- | --- | --- | --- | --- | --- | --- |
| Nc1ncccc1C#CCc1ccc(COc2ccccn2)cc1 [WX003] | 27 µM·h | 13.5 µM | 0.5 h | 0.39 µg/mL (≈ 1.24 µM) | 0.1 µg/mL and 0.2 µg/mL | 0.2 µg/mL and 0.39 µg/mL | 0.0125 µg/mL (≈ 0.0396 µM) | 0.0125 µg/mL (≈ 0.0396 µM) | 0.025 µg/mL (≈ 0.0793 µM) | 0.39 µg/mL (≈ 1.24 µM) | 0.78 µg/mL (≈ 2.47 µM) | 0.025 µg/mL (≈ 0.0793 µM) | – | – | – | – | – | – | – |
| Cc1cc(C#CCc2ccc(COc3ccccn3)cc2)cnc1N [WX007] | – | – | – | 1.56 µg/mL (≈ 4.74 µM) | 0.39 µg/mL | 0.39 µg/mL | 0.05 µg/mL (≈ 0.152 µM) | 0.05 µg/mL (≈ 0.152 µM) | – | 0.78 µg/mL (≈ 2.37 µM) | – | 0.1 µg/mL (≈ 0.304 µM) | 64 µM·h | 4.7 µM | 1.5 h | 0.1 µg/mL (≈ 0.304 µM) | – | – | – |
| Cc1nc(N)ccc1C#CCc1ccc(COc2ccccn2)cc1 [WX006] | 221 µM·h | 23 µM | 1.5 h | 0.78 µg/mL (≈ 2.37 µM) | 0.1 µg/mL and 0.05 µg/mL | 0.39 µg/mL and 0.2 µg/mL | 0.0125 µg/mL (≈ 0.0379 µM) | 0.05 µg/mL (≈ 0.152 µM) | 0.025 µg/mL (≈ 0.0759 µM) | 0.39 µg/mL (≈ 1.18 µM) | – | 0.05 µg/mL (≈ 0.152 µM) | – | – | – | 0.025 µg/mL (≈ 0.0759 µM) | completely protect | 0.025 µg/mL (≈ 0.0759 µM) | 0.0125 µg/mL (≈ 0.0379 µM) |
| Nc1ccc(C#CCc2ccc(Oc3cccc(F)n3)cc2)cn1 [WX009] | – | – | – | 0.025 µg/mL (≈ 0.0783 µM) | 0.39 µg/mL | 0.39 µg/mL | 0.1 µg/mL (≈ 0.313 µM) | 0.05 µg/mL (≈ 0.157 µM) | – | 0.78 µg/mL (≈ 2.44 µM) | – | 0.05 µg/mL (≈ 0.157 µM) | 67 µM·h | 11.4 µM | 0.75 h | 0.05 µg/mL (≈ 0.157 µM) | completely protect | – | – |
